SMILES strings stand for the structures.

What is called IC50 is the concentration that inhibits the measured activity by half. Read a low IC50 as higher potency.

Holding throughout (format): biochemical
Holding throughout (design): from tissue; host or cells: mouse brain membrane fraction
Conditions in all cases: 30 min preincubation at 37° C.

The target in experiment [1] is T1, ABHD6 (Mus musculus, UniProt Q8R2Y0).
T1 sequence (Q8R2Y0 1-336): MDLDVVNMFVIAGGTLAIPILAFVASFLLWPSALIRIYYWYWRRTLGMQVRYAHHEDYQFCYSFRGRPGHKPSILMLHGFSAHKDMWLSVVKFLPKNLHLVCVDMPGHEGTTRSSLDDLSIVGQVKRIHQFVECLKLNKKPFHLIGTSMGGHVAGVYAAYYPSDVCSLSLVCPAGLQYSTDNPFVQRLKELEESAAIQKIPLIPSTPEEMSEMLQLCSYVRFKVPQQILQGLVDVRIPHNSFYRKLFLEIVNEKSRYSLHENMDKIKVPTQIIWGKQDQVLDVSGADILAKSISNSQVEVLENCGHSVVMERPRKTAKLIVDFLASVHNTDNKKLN
Description: In vitro competitive activity-based protein profiling (FP-Rh), mouse ABHD6. The procedure:
(§1) In Vitro Competitive Activity-Based Protein Profiling.
(§2) Proteomes (mouse brain membrane fraction or cell lysates) (50 μL, 1.0 mg/ml total protein concentration) were preincubated with varying concentrations of inhibitors at 37° C. After 30 min, FP-Rh (1.0 μL, 50 μM in DMSO) was added and the mixture was incubated for another 30 min at 37° C. Reactions were quenched with SDS loading buffer (50 μL—4×) and run on SDS-PAGE.

Experiment [2] deals with T2, MAGL (Mus musculus, UniProt O35678).
T2 sequence (O35678 1-303): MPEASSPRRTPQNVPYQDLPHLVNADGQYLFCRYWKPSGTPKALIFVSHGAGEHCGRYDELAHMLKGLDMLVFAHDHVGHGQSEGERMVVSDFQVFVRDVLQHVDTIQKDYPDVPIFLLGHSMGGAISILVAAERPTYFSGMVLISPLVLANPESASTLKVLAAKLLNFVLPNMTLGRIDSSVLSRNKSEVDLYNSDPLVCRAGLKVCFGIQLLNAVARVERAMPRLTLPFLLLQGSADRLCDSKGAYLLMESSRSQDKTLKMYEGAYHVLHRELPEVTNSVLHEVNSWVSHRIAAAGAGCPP
The experiment can be described thus: In vitro competitive activity-based protein profiling (FP-Rh), mouse MAGL. The procedure: as §1, §2

Experiment [3] has as its target T3, FAAH (Mus musculus, UniProt O08914).
T3 sequence (O08914 1-579): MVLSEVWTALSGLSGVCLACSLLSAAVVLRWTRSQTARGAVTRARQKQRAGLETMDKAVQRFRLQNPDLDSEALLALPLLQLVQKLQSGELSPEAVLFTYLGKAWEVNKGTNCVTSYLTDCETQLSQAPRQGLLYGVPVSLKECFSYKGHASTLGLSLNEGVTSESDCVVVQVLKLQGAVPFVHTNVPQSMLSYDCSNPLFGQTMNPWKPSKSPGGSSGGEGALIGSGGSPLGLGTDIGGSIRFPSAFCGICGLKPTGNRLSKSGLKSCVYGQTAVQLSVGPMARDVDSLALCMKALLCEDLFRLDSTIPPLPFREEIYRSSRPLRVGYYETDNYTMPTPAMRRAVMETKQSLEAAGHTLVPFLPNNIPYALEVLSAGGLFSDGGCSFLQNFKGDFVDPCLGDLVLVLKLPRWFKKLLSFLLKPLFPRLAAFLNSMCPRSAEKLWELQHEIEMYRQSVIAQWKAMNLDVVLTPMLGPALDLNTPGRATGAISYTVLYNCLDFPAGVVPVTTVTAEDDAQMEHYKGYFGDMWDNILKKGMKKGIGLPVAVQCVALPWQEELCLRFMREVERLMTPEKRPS
Description: In vitro competitive activity-based protein profiling (FP-Rh), mouse FAAH. The procedure: as §1, §2

Take `CN(C)C(=O)ON1C(=O)CCC1=O` [Example 57, 2,5-Dioxopyrrolidin-1-yl dimethylcarbamate]: the IC50 in experiment [1] (Table 1, mouse proteome) was greater than 10000 nM; in experiment [2] (Table 1, mouse proteome), greater than 10000 nM; in experiment [3] (Table 1, mouse proteome) it was greater than 10000 nM.

For `CN(C)C(=O)ON1C(=O)CC(c2ccccc2)C1=O` (stereo not drawn) [Example 59, 2,5-Dioxo-3-phenylpyrrolidin-1-yl dimethylcarbamate], the IC50 in experiment [1] (Table 1, mouse proteome) was greater than 10000 nM; in experiment [2] (Table 1, mouse proteome), greater than 10000 nM; in experiment [3] (Table 1, mouse proteome), greater than 10000 nM.

For the compound `O=C(ON1C(=O)CC(c2ccccc2)C1=O)N1CCCCC1` (stereo not drawn) [Example 60, 2,5-Dioxo-3-phenylpyrrolidin-1-yl piperidine-1-carboxylate], the IC50 in experiment [1] (Table 1, mouse proteome) was greater than 10000 nM; in experiment [2] (Table 1, mouse proteome) it was greater than 10000 nM; in experiment [3] (Table 1, mouse proteome), greater than 10000 nM.

In the case of `O=C(ON1C(=O)CNC1=O)N1CCCCC1` [Example 61, 2,5-Dioxoimidazolidin-1-yl piperidine-1-carboxylate], the IC50 in experiment [1] (Table 1, mouse proteome) is greater than 10000 nM; in experiment [2] (Table 1, mouse proteome), greater than 10000 nM; in experiment [3] (Table 1, mouse proteome), greater than 10000 nM.

Turning to `O=C(ON1C(=O)CCC1=O)N1CCN(Cc2ccc(N3CCOCC3)cc2F)CC1` [Example 62, 2,5-Dioxopyrrolidin-1-yl 4-(2-fluoro-4-morpholinobenzyl)-piperazine-1-carboxylate], the IC50 in experiment [1] (Table 2, mouse proteome) is 1000 to 10000 nM; in experiment [2] (Table 2, mouse proteome), 1000 to 10000 nM; in experiment [3] (Table 2, mouse proteome) it was greater than 10000 nM.

For the compound `O=C(ON1C(=O)CCC1=O)N1CCN(Cc2ccc(Br)cc2N2CCCCC2)CC1` [Example 65, 2,5-Dioxopyrrolidin-1-yl 4-(4-bromo-2-(piperidin-1-yl)benzyl)piperazine-1-carboxylate], the IC50 is 100 to 1000 nM in experiment [1] (Table 2, mouse proteome); less than 100 nM in experiment [2] (Table 2, mouse proteome); 1000 to 10000 nM in experiment [3] (Table 2, mouse proteome).

`O=C(ON1C(=O)CCC1=O)N1CCN(Cc2ccc(Br)cc2N2CCOCC2)CC1` [Example 66, 2,5-Dioxopyrrolidin-1-yl 4-(4-bromo-2-morpholinobenzyl)piperazine-1-carboxylate]: the IC50 is 1000 to 10000 nM in experiment [1] (Table 2, mouse proteome); less than 100 nM in experiment [2] (Table 2, mouse proteome); 1000 to 10000 nM in experiment [3] (Table 2, mouse proteome).

Turning to `COc1cc(N2CCOCC2)ccc1CN1CCN(C(=O)ON2C(=O)CCC2=O)CC1` [Example 67, 2,5-Dioxopyrrolidin-1-yl 4-(2-methoxy-4-morpholinobenzyl)piperazine-1-carboxylate], the IC50 in experiment [1] (Table 2, mouse proteome) fell in the range of 1000 to 10000 nM; in experiment [2] (Table 2, mouse proteome), 1000 to 10000 nM; in experiment [3] (Table 2, mouse proteome) it was 1000 to 10000 nM.

`Cc1cc(N2CCCC2)ccc1CN1CCN(C(=O)ON2C(=O)CCC2=O)CC1` [Example 68, 2,5-Dioxopyrrolidin-1-yl 4-(2-methyl-4-(pyrrolidin-1-yl)benzyl)piperazine-1-carboxylate]: the IC50 is 100 to 1000 nM in experiment [1] (Table 2, mouse proteome); 100 to 1000 nM in experiment [2] (Table 2, mouse proteome); 1000 to 10000 nM in experiment [3] (Table 2, mouse proteome).

As to `O=C(ON1C(=O)CCC1=O)N1CCN(Cc2ccc(Cl)cc2N2CCOCC2)CC1` [Example 69, 2,5-Dioxopyrrolidin-1-yl 4-(4-chloro-2-morpholinobenzyl)piperazine-1-carboxylate], the IC50 in experiment [1] (Table 2, mouse proteome) was 100 to 1000 nM; in experiment [2] (Table 2, mouse proteome), less than 100 nM; in experiment [3] (Table 2, mouse proteome), 1000 to 10000 nM.

For the compound `COc1ccc(CN2CCN(C(=O)ON3C(=O)CCC3=O)CC2)cc1` [Example 70, 2,5-Dioxopyrrolidin-1-yl 4-(4-methoxybenzyl)piperazine-1-carboxylate], the IC50 lay in the range of 1000 to 10000 nM in experiment [1] (Table 2, mouse proteome); 1000 to 10000 nM in experiment [2] (Table 2, mouse proteome); 1000 to 10000 nM in experiment [3] (Table 2, mouse proteome).

For the compound `Cc1ccc(CN2CCN(C(=O)ON3C(=O)CCC3=O)CC2)cc1` [Example 71, 2,5-Dioxopyrrolidin-1-yl 4-(4-methylbenzyl)piperazine-1-carboxylate], the IC50 lay within 1000 to 10000 nM in experiment [1] (Table 2, mouse proteome); 100 to 1000 nM in experiment [2] (Table 2, mouse proteome); 1000 to 10000 nM in experiment [3] (Table 2, mouse proteome).

Consider `O=C(ON1C(=O)CCC1=O)N1CCN(Cc2ccc(Cl)cc2N2CCCC2)CC1` [Example 74, 2,5-Dioxopyrrolidin-1-yl 4-(4-chloro-2-(pyrrolidin-1-yl)benzyl)piperazine-1-carboxylate], for which the IC50 in experiment [1] (Table 2, mouse proteome) is 100 to 1000 nM; in experiment [2] (Table 2, mouse proteome), less than 100 nM; in experiment [3] (Table 2, mouse proteome) it was greater than 10000 nM.

On to `O=C(ON1C(=O)CCC1=O)N1CCN(Cc2ccc(N3CCCC3)c(F)c2)CC1` [Example 75, 2,5-Dioxopyrrolidin-1-yl 4-(3-fluoro-4-(pyrrolidin-1-yl)benzyl)piperazine-1-carboxylate], for which the IC50 in experiment [1] (Table 2, mouse proteome) is 1000 to 10000 nM; in experiment [2] (Table 2, mouse proteome), 100 to 1000 nM; in experiment [3] (Table 2, mouse proteome) it was greater than 10000 nM.

As to `O=C(ON1C(=O)CCC1=O)N1CCN(Cc2ccc(N3CCCC3)cc2Cl)CC1` [Example 78, 2,5-Dioxopyrrolidin-1-yl 4-(2-chloro-4-(pyrrolidin-1-yl)benzyl)piperazine-1-carboxylate], the IC50 in experiment [1] (Table 2, mouse proteome) was less than 100 nM; in experiment [2] (Table 2, mouse proteome), less than 100 nM; in experiment [3] (Table 2, mouse proteome), 1000 to 10000 nM.

For the compound `O=C(ON1C(=O)CCC1=O)N1CCN(Cc2cccc(Cl)c2N2CCOCC2)CC1` [Example 82, 2,5-Dioxopyrrolidin-1-yl 4-{[3-chloro-2-(morpholin-4-yl)phenyl]methyl}piperazine-1-carboxylate], the IC50 in experiment [1] (Table 2, mouse proteome) was 1000 to 10000 nM; in experiment [2] (Table 2, mouse proteome), 100 to 1000 nM; in experiment [3] (Table 2, mouse proteome), greater than 10000 nM.

As for `O=C(ON1C(=O)CCC1=O)N1CCN(Cc2cccc(N3CCOCC3)c2)CC1` [Example 83, 2,5-Dioxopyrrolidin-1-yl 4-(3-morpholinobenzyl)piperazine-1-carboxylate], the IC50 was 100 to 1000 nM in experiment [1] (Table 2, mouse proteome); 100 to 1000 nM in experiment [2] (Table 2, mouse proteome); greater than 10000 nM in experiment [3] (Table 2, mouse proteome).

Regarding `O=C(ON1C(=O)CCC1=O)N1CCN(Cc2ccc(Cl)cc2-n2cccn2)CC1` [Example 84, 2,5-Dioxopyrrolidin-1-yl 4-(4-chloro-2-(1H-pyrazol-1-yl)benzyl)piperazine-1-carboxylate], the IC50 in experiment [1] (Table 2, mouse proteome) was 1000 to 10000 nM; in experiment [2] (Table 2, mouse proteome), 100 to 1000 nM; in experiment [3] (Table 2, mouse proteome) it was greater than 10000 nM.

Regarding `CC(=O)NC1CCN(c2cc(Cl)ccc2CN2CCN(C(=O)ON3C(=O)CCC3=O)CC2)C1` (stereo not drawn) [Example 85, 2,5-Dioxopyrrolidin-1-yl 4-(2-(3-acetamidopyrrolidin-1-yl)-4-chlorobenzyl)piperazine-1-carboxylate], the IC50 in experiment [1] (Table 2, mouse proteome) is 1000 to 10000 nM; in experiment [2] (Table 2, mouse proteome), less than 100 nM; in experiment [3] (Table 2, mouse proteome), greater than 10000 nM.

As to `O=C(ON1C(=O)CCC1=O)N1CCN(Cc2ccc(C(F)(F)F)cc2N2CCOCC2)CC1` [Example 91, 2,5-Dioxopyrrolidin-1-yl 4-{[2-(morpholin-4-yl)-4-(trifluoromethyl)phenyl]methyl}piperazine-1-carboxylate], the IC50 in experiment [1] (Table 2, mouse proteome) was 100 to 1000 nM; in experiment [2] (Table 2, mouse proteome), less than 100 nM; in experiment [3] (Table 2, mouse proteome), greater than 10000 nM.

As to `O=C(ON1C(=O)CCC1=O)N1CCN(Cc2cc(Cl)ccc2N2CCOCC2)CC1` [Example 92, 2,5-Dioxopyrrolidin-1-yl 4-{[5-chloro-2-(morpholin-4-yl)phenyl]methyl}piperazine-1-carboxylate], the IC50 was 1000 to 10000 nM in experiment [1] (Table 2, mouse proteome); 100 to 1000 nM in experiment [2] (Table 2, mouse proteome); greater than 10000 nM in experiment [3] (Table 2, mouse proteome).

`O=C(ON1C(=O)CCC1=O)N1CCN(Cc2cccc(F)c2N2CCOCC2)CC1` [Example 93, 2,5-dioxopyrrolidin-1-yl 4-{[3-fluoro-2-(morpholin-4-yl)phenyl]methyl}piperazine-1-carboxylate]: the IC50 in experiment [1] (Table 2, mouse proteome) is greater than 10000 nM; in experiment [2] (Table 2, mouse proteome) it was 100 to 1000 nM; in experiment [3] (Table 2, mouse proteome), greater than 10000 nM.

Regarding `O=C(ON1C(=O)CCC1=O)N1CCN(Cc2ccc(N3CCOCC3)cc2Cl)CC1` [Example 94, 2,5-Dioxopyrrolidin-1-yl 4-(2-chloro-4-morpholinobenzyl)piperazine-1-carboxylate], the IC50 in experiment [1] (Table 2, mouse proteome) is 1000 to 10000 nM; in experiment [2] (Table 2, mouse proteome) it was 1000 to 10000 nM; in experiment [3] (Table 2, mouse proteome), greater than 10000 nM.
